Laboratory results from patent US9890140B2, “Maleate salts of a quinazoline derivative useful as an antiangiogenic agent” (AstraZeneca AB, priority 2003, dated 2018).

Legend:
[1] = Dynamic vapour sorption, moisture content at 80% RH; assay type: physicochemical; settings: 80% relative humidity
Method: Dynamic Vapour Sorption Analytical Instrument: Surface Measurements Systems Dynamic Vapour Sorption Analyser. About 5 mg of material contained in a quartz holder at 25° C. was subjected to humidified nitrogen at the following relative humidities (RH): 0, 20, 40, 60, 80, 95, 80, 60, 40, 20, 0% RH in duplicate.

[2] = Crystallinity of AZD2171 salts; assay type: physicochemical
[3] = Evidence for polymorphism from DSC thermograms; assay type: physicochemical
Method: Analytical Instrument: Mettler DSC820e. Typically less than 5 mg of material contained in a 40 μl aluminium pan fitted with a pierced lid was heated over the temperature range 25° C. to 325° C. at a constant heating rate of 10° C. per minute. A purge gas using nitrogen was used—flow rate 100 ml per minute.

[4] = Evidence of hydrate formation (vapour sorption or TGA); assay type: physicochemical; settings: vapour sorption (hysteresis, water absorption) or TGA
Method: About 5 mg of material contained in a quartz holder at 25° C. was subjected to humidified nitrogen at the following relative humidities (RH): 0, 20, 40, 60, 80, 95, 80, 60, 40, 20, 0% RH in duplicate. Typically between 3 and 12 mg of material contained in a 70 μl alox (aluminium oxide) crucible was heated over the temperature range 25° C. to 325° C. at a constant heating rate of 10° C. per minute. A purge gas using helium was used—flow rate 50 ml per minute.

[5] = Solid state stability of the free base on dehydration / micronisation (XRPD); assay type: physicochemical
Method: This is shown by a broadening of the peaks and formation of an amorphous 'hump'-see FIG. 4. […] The X-ray powder diffraction spectra were determined by mounting a sample of the crystalline salt on Siemens single silicon crystal (SSC) wafer mounts and spreading out the sample into a thin layer with the aid of a microscope slide. The sample was spun at 30 revolutions per minute (to improve counting statistics) and irradiated with X-rays generated by a copper long-fine focus tube operated at 40 kV and 40 mA with a wavelength of 1.5406 angstroms. The collimated X-ray source was passed through an automatic variable divergence slit set at […] and the reflected radiation directed through a 2 mm antiscatter slit and a 0.2 mm detector slit. The sample was exposed for 1 second per 0.02 degree 2-theta increment (continuous scan mode) over the range 2 degrees to 40 degrees 2-theta in theta-theta mode. The running time was 31 minutes and 41 seconds. The instrument was equipped with a scintillation counter as detector. Control and data capture was by means of a Dell Optiplex 686 NT 4.0 Workstation operating with Diffract+ software. Persons skilled in the art of X-ray powder diffraction will realise that the relative intensity of peaks can be affected by, for example, grains above 30 microns in size and non-unitary aspect ratios which may affect analysis of samples. […]

[6] = tested on: VEGF-stimulated proliferation of human umbilical vein endothelial cells (HUVEC); test: In vitro HUVEC proliferation assay, VEGF-stimulated; assay type: cell-based; settings: read-out: IC50 for inhibition of VEGF-stimulated endothelial cell proliferation
Method: (b) In Vitro HUVEC Proliferation Assay
(§1) HUVEC cells were isolated in MCDB 131 (Gibco BRL)+7.5% v/v foetal calf serum (FCS) and were plated out (at passage 2 to 8), in MCDB 131+2% v/v FCS+3 μg/ml heparin+1 μg/ml hydrocortisone, at a concentration of 1000 cells/well in 96 well plates. After a minimum of 4 hours they were dosed with VEGF (3 ng/ml) and compound. The cultures were then incubated for 4 days at 37° C. with 7.5% CO2. On day 4 the cultures were pulsed with 1 μCi/well of tritiated-thymidine (Amersham product TRA 61) and incubated for 4 hours. The cells were harvested using a 96-well plate harvester (Tomtek) and then assayed for incorporation of tritium with a Beta plate counter. Incorporation of radioactivity into cells, expressed as cpm, was used to measure inhibition of growth factor-stimulated cell proliferation by compounds. This methodology was also used to assess compound effects versus basal HUVEC growth (i.e. endothelial cell proliferation in MCDB 131+2% v/v FCS […]+3 μg/ml heparin+1 μg/ml hydrocortisone without the addition of exogenous VEGF).

Calu-6 tumour xenograft = test: In vivo solid tumour disease model; set-up: species or system female athymic Swiss nu/nu mice; settings: once-daily oral, 28 days
Method: (c) In Vivo Solid Tumour Disease Model This test measures the capacity of compounds to inhibit solid tumour growth. CaLu-6 tumour xenografts were established in the flank of female athymic Swiss nu/nu mice, by subcutaneous injection of 1×10^6 Calu-6 cells/mouse in 100 μl of a 50% (v/v) solution of Matrigel in serum free culture medium. […] Tumours were measured using vernier calipers and volumes were calculated as: (l×w)×√(l×w)×(π/6), where l is the longest diameter and w the diameter perpendicular to the longest. Test compounds were administered orally once daily for a minimum of 21 days, and control animals received compound diluent. Tumours were measured twice weekly. The level of growth inhibition was calculated by comparison of the mean tumour volume of the control group versus the treatment group using a Student T test and/or a Mann-Whitney Rank Sum Test. The inhibitory effect of compound treatment was considered significant when p<0.05.

[7] = tested on: basal HUVEC growth (without exogenous VEGF); test: In vitro HUVEC proliferation assay, basal growth; assay type: cell-based; settings: Homo sapiens, no exogenous VEGF, read-out: IC50 for inhibition of basal endothelial cell proliferation
Method: as §1

Compound	Moisture Content at 80% RH [1] [%]	Crystalline (Yes/No) [2]	No of Polymorphs [3]	Evidence of Hydrate Formation (Yes/No) [4]	Solid form after dehydration ([5]; heating to 100° C., FIG. 3)	Solid form after particle size reduction ([5]; micronisation, FIG. 4)	IC50 [6] [pM]	Inhibition of growth of Calu-6 tumour xenograft (Calu-6 tumour xenograft; 1.5 mg/kg/day, P<0.01) [%]	Inhibition of growth of Calu-6 tumour xenograft (Calu-6 tumour xenograft; 3 mg/kg/day, P<0.0001) [%]	Inhibition of growth of Calu-6 tumour xenograft (Calu-6 tumour xenograft; 6 mg/kg/day, P<0.0001) [%]	IC50 [7] [pM]
Fumarate	3.5	Yes	≧3	No	–	–	–	–	–	–	–
COc1cc2c(Oc3ccc4[nH]c(C)cc4c3F)ncnc2cc1OCCCN1CCCC1 [AZD2171, 4-((4-fluoro-2-methyl-1H-indol-5-yl)oxy)-6-methoxy-7-(3-(pyrrolidin-1-yl)propoxy)quinazoline]	–	–	–	–	becomes amorphous	amorphous material does indeed form	400 ± 200	49	69	91	> 500000
Malonate	–	Yes	≧3	Yes	–	–	–	–	–	–	–
